# Assay results from paper PMC12801355, “Peptide Amphiphiles Hitchhike on Endogenous Biomolecules for Enhanced Cancer Imaging and Therapy” (Advanced Materials (Deerfield Beach, Fla.), 2025).
# Where a SMILES comes first, the peptide text is derived from it. Where no end group is shown, it is not given here. [ ]: non-standard residue; d: D form. The star is where a group is joined. Dolaproine = CO[C@@H]([C@@H]1CCCN1)[C@@H](C)C(=O)O; Dil = CC[C@H](C)[C@H](NC)[C@@H](CC(=O)O)OC; Palmitoyl = CCCCCCCCCCCCCCCC(=O)*; X1 = C[C@@H](N*)[C@@H](O)c1ccccc1; NMeV = CN[C@H](C(=O)O)C(C)C
# Experiments:
# [1] = Blood circulation in mice; assay type: in vivo, mouse
# Procedure: For blood circulation experiments, Balb/c mice were injected with 100 µL of ICG conjugated PAs or No‐SA, or free ICG (0.5 mM). Then, blood was drawn via the saphenous vein or retro‐orbitally at different time points (immediately after injection to 1 day). […] Blood from wild type mice was collected to prepare calibration curves for each probe. To each 18 µL aliquot of blood, 2 µL of probe stock solution (0.5 mM) was added and incubated at 37 °C for 1 h. The spiked samples were then serially diluted in blood between 50 and 0.1 µM. For fluorescence measurement, 2 µL of each diluted sample was further diluted into 98 µL of PBS, and ICG fluorescence was measured using a TECAN plate reader.
# 4T1 tumor [2] = assay: Tumor accumulation, live IVIS imaging; assay type: in vivo, mouse; details: 50 nmol IV
# Procedure: For tumor accumulation studies in subcutaneous (HCT‐116, A375, TRAMP‐C2, MC38, LLC1, RG2, PDX cell lines, wild type or SR‐B1 ‐/‐ TRAMP‐C2, and wild type or LDL‐R ‐/‐ HeLa), intradermal (A375), or fat pad (4T1 and MCF‐7) tumors, cells were implanted as described above. When the tumors reached a size around ≈0.3–1 cm, mice were injected intravenously with 100 µL of ICG conjugated PAs (in PBS, 0.5 mM) or free ICG (in PBS, 0.5 mM). After probe injections, mice were imaged using the IVIS Spectrum (PerkinElmer) with excitation and emission wavelengths of 745 and 820 nm, respectively, at the specified time points. Living Image (PerkinElmer) software was used for all analyses. For MMTV mice experiments, mice were injected intravenously weekly with SA‐E (100 µL PBS, 0.5 mM) between 71 and 85 days of age and imaged 2 days later in the IVIS. […] SA‐E was injected intravenously (100 µL PBS, 0.5 mM), 2 days later the intestinal tissue was harvested, washed, and analyzed in the IVIS for ICG.
# 4T1 tumor [3] = assay: Antitumor effect, 4T1 orthotopic mouse model
# Procedure: All experiments were approved by the Oregon Health and Science University (OHSU) Institutional Animal Care and Use Committee (IACUC) (TR01_IP00000674) and conformed to the guidelines set by the United States Animal Welfare Act and the National Institutes of Health. Mice were aged between 3 and 8 months and 20–30 g in weight and were housed in specific pathogen free cages. Human, mouse, or rat cells were injected into nude (The Jackson Laboratory, 002019), NSG mice (The Jackson Laboratory, 005557), Balb/c mice (The Jackson Laboratory, 000651), or C57Bl/6J mice (The Jackson Laboratory, 000664), as specified below. Cells were injected in 100 µL sterile DMEM at a concentration of 0.5–1×10^7 cells mL^−1, unless otherwise specified. For tumor accumulation and biodistribution studies, A375 cells were injected intradermally into the left ears of NSG mice (The Jackson Laboratory, 005557). MCF7 cells were injected into the mammary fat pad of NSG mice. HCT‐116, RG2, and HeLa (wild type or LDL‐R knockout) cells were subcutaneously injected into the left or both flanks of NSG mice. 4T1 cells were injected into the mammary fat pad of Balb/c mice. LLC1, MC38, and TRAMP‐C2 (wild type or SR‐B1 knockout) were injected into C57Bl/6J mice. Patient‐derived xenografts were generated by injecting the patient‐derived cancer cells subcutaneously into the left flank of NSG mice. ApoA1 and LDL‐R knockout mice were purchased from the Jackson Laboratory (002055 and 002207, respectively). MC38 cells were subcutaneously injected into both flanks of these mice. Apc^min and MMTV‐PyMT mice were purchased from the Jackson Laboratory (002020 and 002374). For antitumor activity studies, 4T1 cells were injected into the mammary fat pad of Balb/c mice. HCT‐116 and RG2 cells were subcutaneously injected into the left flanks of nude mice. For antitumor activity studies, HCT‐116 cells were injected in a 1:1 mixture of DMEM and Matrigel (Life Science 354263).
# Mice were injected with 4T1, RG2, or HCT‐116 cells as described above. Mice were then treated intravenously with the free MMAE (0.1 or 0.3 mg kg^−1), SA‐E‐MMAE (0.3, 0.6, 0.8, or 1 mg kg^−1) or PBS (10 mM, pH 7.4). 5 doses were given every 2–3 days over 11 days. […] Tumor size and mouse weight were monitored 2–3 times per week until a humane endpoint (tumor size ≈2 cm or >20% body weight loss) or the study endpoint (18, 25, or 120 days for 4T1, RG2, and HCT‐116 studies, respectively). Tumor size was measured in two directions with a caliper rounded to the nearest tenth of a mm. Volume was calculated as a basic sphere of 4/3πr^3.
# [4] = TEM imaging of PA nanostructures; assay type: physicochemical; details: ICG conjugated PA, 200 µM in ultrapure water, negative stain
# Procedure: For TEM imaging, PAs conjugated with ICG, Cy5 or MMAE were dissolved in ultrapure water at a concentration of 200 µM. Carbonfilm 200 copper mesh TEM grids were glow‐discharged first. Then, PA solutions (15 µL) were placed on the grids, incubated for 10 min before blotting, and air‐dried. 15 µL of ultrapure water was applied to wash the grid for 3 min. After incubation, the water was removed by blotting from the edge of the grid. For negative staining of the samples, a 0.4% uranyl acetate solution was prepared in ultrapure water and filtered using a 0.1 µm syringe filter. 15 µL of filtered uranyl acetate solution was applied to the grid and incubated for 5 min. Finally, TEM grids were blotted to remove excess stain and dried at room temperature. TEM imaging was performed using a Tecnai or Talos microscope (FEI).
# [5] = Fluorescence polarization of PA nanostructures; assay type: physicochemical; details: 10 mol% ICG conjugated PA (20 µM) with unconjugated PA, 200 µM total, PBS; mean ± SEM, 3 wells
# Procedure: ICG (10 mol%) containing PA micelles were prepared by mixing ICG‐conjugated PAs with unconjugated or MMAE‐conjugated PAs to achieve a final concentration of 20 µM ICG‐conjugated PAs and 200 µM of total PAs. Aliquots of 100 µL were added to a 96‐well plate (3 wells for each PA). Fluorescence polarization measurements were performed using a microplate reader (TECAN Spark 20 M). The corrected parallel intensity (I par) and perpendicular intensity (Iper) were used to calculate the fluorescence anisotropy (r) using the following equation: r = […].
# [6] = test system: 4T1 mouse breast cancer cells; assay: Cellular uptake of Cy5 labeled PAs; assay type: cell-based
# Procedure: To compare the uptake of SA‐E and SA‐K, 1 × 10^5 4T1 cells were grown to near confluency (1–2 days) in 96 well plates with black walls and flat glass bottom. 100% Cy5 conjugated PAs (20 or 10 µM) or 10% Cy5 conjugated PA micelles (10 µM Cy5‐PAs mixed with 90 µM maleimide blocked labeled PAs) were preincubated in 10% FBS containing RPMI for 30 min at 37 °C, wells were aspirated, and 100 µL of media containing PAs were added. The plate was incubated for 30 min for the experiments with 100% Cy5 conjugated PAs. Media were aspirated, wells were washed 3x with 150 µL sterile PBS, and then 100 µL RPMI containing 10% FBS was added to each well. The plate was incubated for 1 h at 37 °C. For 10% and 100% Cy5 micelle uptake comparison, plate was incubated for 2 h at 37 °C with PAs. Then, media containing PAs were aspirated and washed with PBS, as above. Cell nuclei were stained with Hoechst (1:5000 dilution in PBS) for 5 min and then removed. 100 µL of phenol red free RPMI containing 10% FBS was added to each well. […] The microscope incubator was preheated for 30 min to reach 35 °C prior to imaging.
# To study the uptake of SA‐E or SA‐K micelles (10% or 100% Cy5 micelles) or No‐SA over time, 4T1 cells were grown to near confluency in a 96 well plate as described above. Cy5 conjugated 100% Cy5 conjugated PAs (20 µM), 10% Cy5 conjugated PAs (10 µM Cy5), or No‐SA (20 µM) or were preincubated in 10% FBS containing RPMI for 30 min at 37 °C. Cell nuclei were stained with Hoechst stain as above. Cell membranes were stained (CellBrite 488, 1:1000 in 10% FBS containing RPMI) for 30 min at 37 °C. Wells were aspirated, and 100 µL of PAs were added to the wells for ≈1 min. Wells were washed with sterile PBS (3x, 150 µL), and Confocal images were taken at different time points (up to 2 h) after PA or No‐SA addition as described above using a 60x objective.
# [7] = test system: LPs (HDL, LDL, VLDL) and albumin in pooled human plasma; design: AUC of all FPLC peaks, lower than SA‐E: unit not given beside the values
# [8] = PA fluorescence in liver homogenates; assay type: in vitro ADME; details: ICG conjugated, 0.1 to 10 µM spiked into mouse liver homogenate, IVIS
# Procedure: Liver samples (6.2 g total weight) collected from healthy BALB/cJ mice were placed in a gentleMACS M Tube containing 2 mL of PBS. The M Tube was fitted with a 600 µm mesh strainer, and homogenization was performed using a gentleMACS Dissociator by running a one‐minute program at 1260 rotations per round (rpr) for five cycles. ICG conjugated SA‐E and SA‐K were then spiked into the liver homogenates in a 96‐well plate at final concentrations of 0, 0.1, 0.5, 2.0, 5.0, and 10 µM. Fluorescence signals from the homogenates were measured using an IVIS (PerkinElmer).
compound,measurement,setting,value
"CC1(C)C(/C=C/C=C/C=C/C=C2\N(CCCCS(=O)(=O)O)c3ccc4ccccc4c3C2(C)C)=[N+](CCCCS(=O)(=O)[O-])c2ccc3ccccc3c21 [free ICG, indocyanine green]",injected dose still in circulation,"[1]; wild type (Balb/c) mice, ICG conjugated or free ICG 50 nmol IV, 6 h post injection, blood fluorescence with calibration curve",not detectable
same,"blood concentration, share of injected dose","[1]; wild type mice, 50 nmol IV, in 30 min",below 1%
same,TBR,4T1 tumor [2]; all time points,around 1
"CC[C@H](C)[C@@H]([C@@H](CC(=O)N1CCC[C@H]1[C@H](OC)[C@@H](C)C(=O)N[C@H](C)[C@@H](O)c1ccccc1)OC)N(C)C(=O)[C@@H](NC(=O)[C@@H](NC)C(C)C)C(C)C [free MMAE, Monomethyl auristatin E] (H-[NMeV]V[Dil][Dolaproine]-X1)",tolerability,"4T1 tumor [3]; 0.1 mg kg^−1 IV, 5 doses, n = 3",tolerated
same,tolerability,"4T1 tumor [3]; 0.3 mg kg^−1 IV, stopped after the third injection, n = 5",high toxicity with rapid weight loss
same,effect on tumor growth,4T1 tumor [3]; 0.1 or 0.3 mg kg^−1 IV,slight reduction in tumor growth
CCCCCCCCCCCCCCCC(=O)NCC(=O)NCC(=O)NCC(=O)N[C@@H](Cc1c[nH]cn1)C(=O)N[C@@H](C)C(=O)N[C@@H](C)C(=O)N[C@@H](CC(N)=O)C(=O)NCC(=O)N[C@@H](CCCCN)C(=O)N[C@@H](CCCCN)C(=O)N[C@@H](CS)C(=O)N[C@@H](CCCCN)C(=O)O [SA‐K] (Palmitoyl-GGGHAANGKKCK-OH),diameter of rod‐shaped micelles (TEM),[4],≈ 10 nm
same,length of rod‐shaped micelles (TEM),[4],several hundred
same,fluorescence anisotropy of ICG in micelles,[5],0.299 ± 0.008
same,"maximum TBR, lower than that of SA‐E",4T1 tumor [2]; 4T1 tumor‐bearing mice,approximately two‐fold
same,"maximum tumor signal, lower than maximum of SA‐E",4T1 tumor [2]; 4T1 tumor‐bearing mice,≈ 6 fold
same,"total tumor accumulation (AUC of tumor signal), lower than SA‐E",4T1 tumor [2]; 4T1 tumor‐bearing mice,≈ 2.7 fold
same,time of maximum tumor fluorescence,"4T1 tumor [2]; 4T1 tumor‐bearing mice, ICG conjugated",4 days
same,uptake relative to SA‐E,"[6]; Cy5 conjugated PAs, 10% FBS RPMI, 30 min incubation then 1 h, confocal",approximately three‐fold
same,"AUC of all FPLC peaks, lower than SA‐E",[7],≈ 4.5
same,"fluorescence in liver homogenates, SA‐E versus SA‐K (disassembly)",[8],almost identical fluorescence intensity
GGGHAANGEECE [No‐SA],TBR compared to SA‐E,4T1 tumor [2]; 4T1 tumor‐bearing mice,significantly lower TBR
same,clearance from the tumor,"4T1 tumor [2]; ICG conjugated, 4T1",mostly cleared in 2 days
same,membrane binding and internalization,"[6]; Cy5‐conjugated, 20 µM, ≈1 min exposure, imaging up to 2 h",no significant membrane binding or internalization
